Measured values as given in ChEMBL document CHEMBL4610118 (J Med Chem, 2020).

molecular target: CDK7/Cyclin H/MNAT1 (Homo sapiens, UniProt P50613)
Sequence (P51946 whole entry): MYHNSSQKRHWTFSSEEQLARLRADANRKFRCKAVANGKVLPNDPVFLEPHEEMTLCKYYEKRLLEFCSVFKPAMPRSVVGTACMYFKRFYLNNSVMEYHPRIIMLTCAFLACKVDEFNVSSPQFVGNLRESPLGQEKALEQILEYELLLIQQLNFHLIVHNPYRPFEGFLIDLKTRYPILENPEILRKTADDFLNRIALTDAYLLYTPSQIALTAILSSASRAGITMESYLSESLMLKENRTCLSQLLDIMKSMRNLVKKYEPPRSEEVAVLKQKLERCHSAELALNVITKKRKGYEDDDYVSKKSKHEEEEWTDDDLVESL
Sequence (P50613 whole entry): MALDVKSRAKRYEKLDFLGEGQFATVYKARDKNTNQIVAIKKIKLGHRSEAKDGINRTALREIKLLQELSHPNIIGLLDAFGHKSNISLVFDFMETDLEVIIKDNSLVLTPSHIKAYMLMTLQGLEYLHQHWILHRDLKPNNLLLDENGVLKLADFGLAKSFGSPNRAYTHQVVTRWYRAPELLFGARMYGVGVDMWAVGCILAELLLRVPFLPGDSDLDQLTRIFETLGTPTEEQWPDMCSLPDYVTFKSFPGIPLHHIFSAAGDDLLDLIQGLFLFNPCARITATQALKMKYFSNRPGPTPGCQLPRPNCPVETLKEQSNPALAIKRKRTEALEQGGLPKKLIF
Sequence (P51948 whole entry, further chain): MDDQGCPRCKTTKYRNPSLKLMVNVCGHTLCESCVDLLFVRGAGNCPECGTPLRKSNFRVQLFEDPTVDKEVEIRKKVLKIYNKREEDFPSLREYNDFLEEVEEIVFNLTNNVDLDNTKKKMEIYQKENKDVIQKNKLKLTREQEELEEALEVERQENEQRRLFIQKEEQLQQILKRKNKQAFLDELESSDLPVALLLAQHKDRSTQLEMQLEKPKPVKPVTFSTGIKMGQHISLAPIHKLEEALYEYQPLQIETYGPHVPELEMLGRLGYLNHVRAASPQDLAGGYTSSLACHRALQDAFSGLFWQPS
Description: Inhibition of recombinant human full-length His-tagged CDK7/Cyclin H/MNAT1 expressed in baculovirus infection system using Cdk7/9tide as substrate measured after 1 hr by Alexa Fluor 647 ADP Tracer-based Adapta assay

Row | IC50 [µM] | SMILES
1 | 7.79 | C=CC(=O)Nc1ccc(C(=O)N2CCC[C@@H](Nc3ncc(SCc4ncc(C(C)(C)C)o4)s3)[C@H]2C)cc1
2 | > 10 | C=CC(=O)Nc1ccc(C(=O)N2CCC[C@@H](Nc3ncc([S+]([O-])Cc4ncc(C(C)(C)C)o4)s3)C2)cc1 (stereo not given in full)
3 | 5.54 | C=CC(=O)Nc1ccc(C(=O)N2CCC[C@@H](Nc3ncc(SCc4ncc(C(C)(C)C)o4)s3)C2)cc1F
4 | > 10 | C=CC(=O)Nc1ccc(C(=O)N2CCC[C@@H](Nc3ncc(SCc4ccncc4)s3)C2)cc1
5 | 9.6 | C=CC(=O)Nc1ccc(C(=O)N2CC(Nc3ncc(SCc4ncc(C(C)(C)C)o4)s3)CC(F)(F)C2)cc1 (stereo not given)
6 | 3.49 | C=CC(=O)Nc1ccc(C(=O)N2CCC[C@@H](Nc3ncc(SCc4ncc(C(C)(C)C)o4)s3)C2)cc1C(F)(F)F

The remaining lines, values behind:

Row | SMILES | IC50 [µM]
7 | C=CC(=O)Nc1ccc(C(=O)N2C[C@H](Nc3ncc(SCc4ncc(C(C)(C)C)o4)s3)CC[C@@H]2C)cc1 | 0.609
8 | C=CC(=O)Nc1ccc(C(=O)N2CCC[C@@H](Nc3ncc(SCc4ncc(C(C)(C)C)o4)s3)C2)nc1 | 3.89
9 | C=CC(=O)Nc1ccc(C(=O)N2CCC[C@@H](Nc3ncc(Cl)c(SCc4ncc(C(C)(C)C)o4)n3)C2)cc1 | 5.12
10 | C=CC(=O)Nc1ccc(C(=O)N2CCC[C@@H](Nc3nc(C)c(SCc4ncc(C(C)(C)C)o4)s3)C2)cc1 | > 10
